From patent US11999758B2, “Inhibitors of the YAP/TAZ-TEAD interaction and their use in the treatment of cancer” (INVENTIVA, priority 2018, dated 2024)

How the values were obtained:
YAP-TEAD interaction = target: T1, YAP-TEAD interaction (Homo sapiens, UniProt P28347); assay: Cell-based TEAD-GAL4 transactivation assay (luciferase reporter); details: HEK293 cells transfected with TEAD1-Gal4, YAP mutant (S127A, S397A) and luciferase reporter, compounds 0.1 μM to 30 μM; for Emax: HEK293, 24 h, read-out: TEAD-GAL4 Transactivation activity Max Act; for IC50: 24 h
T1 construct: expressed in transfected cells; host or cells: HEK293 GripTite 293 MSR (Invitrogen R795-07)
How it was run: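 HEK293 cells transiently transfected with Gal4-DBD–full-length human TEAD1, full-length YAP S127A/S397A (YAP/TEAD ratio 10) and a 5×GAL4-RE TK-luciferase reporter. Six hours later, compounds added semi-log from 0.1 to 30 μM (DMSO 0.5% control) for 24 h. Luciferase read; IC50 from 3-parameter fit.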

T1 sequence (P28347 whole entry, the tested form may be a part): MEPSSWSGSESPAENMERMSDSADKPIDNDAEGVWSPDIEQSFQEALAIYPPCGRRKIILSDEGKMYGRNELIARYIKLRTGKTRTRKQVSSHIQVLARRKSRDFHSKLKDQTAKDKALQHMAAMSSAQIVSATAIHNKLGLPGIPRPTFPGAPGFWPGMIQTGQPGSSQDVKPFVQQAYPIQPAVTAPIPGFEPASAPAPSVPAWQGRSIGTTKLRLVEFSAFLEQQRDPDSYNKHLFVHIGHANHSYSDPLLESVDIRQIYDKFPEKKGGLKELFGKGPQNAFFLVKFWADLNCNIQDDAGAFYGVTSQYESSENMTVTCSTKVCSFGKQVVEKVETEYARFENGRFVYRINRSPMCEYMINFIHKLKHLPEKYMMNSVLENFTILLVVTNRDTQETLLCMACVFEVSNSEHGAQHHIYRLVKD

| SMILES | Emax (YAP-TEAD interaction) [%] | IC50 (YAP-TEAD interaction) [nM] | melting point [°C] |
| --- | --- | --- | --- |
| COCCN(/N=C/c1ccc2c(c1)COB2O)c1ncnc2nc(SC)sc12.Cl [Ex95, N-[(E)-(1-hydroxy-3H-2,1-benzoxaborol-5-yl)methyleneamino]-N-(2-methoxyethyl)-2-methylsulfanyl-thiazolo[4,5-d]pyrimidin-7-amine, hydrochloride] | 85 | 130 | 252 to 264 |
| CCN(/N=C/c1ccc2c(c1)COB2O)C1=NS(=O)(=O)c2ccccc21 [Ex 27, N-ethyl-N-[(E)-(1-hydroxy-3H-2,1-benzoxaborol-5-yl)methyleneamino]-1,1-dioxo-1,2-benzothiazol-3-amine] | 83 | 6460 | 218 |
| CCN(/N=C/c1ccc2c(c1)COB2O)c1ncnc2c(C)n[nH]c12 [Ex80, N-ethyl-N-[(E)-(1-hydroxy-3H-2,1-benzoxaborol-5-yl)methyleneamino]-3-methyl-1H-pyrazolo[4,3-d]pyrimidin-7-amine] | 69 | 1960 | 265 to 276 |
| COCCN(/N=C/c1ccc2c(c1)COB2O)C1=NS(=O)(=O)c2ccccc21 [Ex 24, N-[(E)-(1-hydroxy-3H-2,1-benzoxaborol-5-yl)methyleneamino]-N-(2-methoxyethyl)-1,1-dioxo-1,2-benzothiazol-3-amine] | 76 | 5190 | 227 |
| CN(/N=C/c1ccc2c(c1)COB2O)c1ncnc2c1CC(=O)N2C [Ex99, 4-[[(E)-(1-hydroxy-3H-2,1-benzoxaborol-5-yl)methyleneamino]-methyl-amino]-7-methyl-5H-pyrrolo[2,3-d]pyrimidin-6-one] | 91 | 2120 | 288 to 307 |
| COc1cccc2c(N(CC(C)C)/N=C/c3ccc4c(c3)COB4O)ncnc12 [Ex 32, N-[(E)-(1-hydroxy-3H-2,1-benzoxaborol-5-yl)methyleneamino]-N-isobutyl-8-methoxy-quinazolin-4-amine] | 86 | 1590 | – |
| CCN(/N=C/c1ccc2c(c1)COB2O)c1ncnc2cc[nH]c12 [Ex81, N-ethyl-N-[(E)-(1-hydroxy-3H-2,1-benzoxaborol-5-yl)methyleneamino]-5H-pyrrolo[3,2-d]pyrimidin-4-amine] | 79 | 1750 | – |
| COc1cc(OC)c2c(c1)C(N1N=C(c3ccc(B(O)O)c(OC)c3)CCC1C)=NS2(=O)=O (centres unmarked) [Ex 54, [4-[2-(5,7-dimethoxy-1,1-dioxo-1,2-benzothiazol-3-yl)-3-methyl-4,5-dihydro-3H-pyridazin-6-yl]-2-methoxy-phenyl]boronic acid] | 76 | 2350 | – |
| COc1cc(/C=N/N(CC(C)C)C2=NS(=O)(=O)c3ccccc32)cc2c1B(O)OC2 [Ex 48, N-[(E)-(1-hydroxy-7-methoxy-3H-2,1-benzoxaborol-5-yl)methyleneamino]-N-isobutyl-1,1-dioxo-1,2-benzothiazol-3-amine] | 77 | – | – |
| COc1cc(/C=N/N(CC(C)C)c2ncnc3c(OC)cccc23)ccc1B(O)O [Ex 13, [4-[(E)-[isobutyl-(8-methoxyquinazolin-4-yl)hydrazono]methyl]-2-methoxy-phenyl] boronic acid] | 95 | 5780 | – |
| CN(/N=C/c1ccc2c(c1)COB2O)C1=NS(=O)(=O)c2ccccc21 [Ex 26, N-[(E)-(1-hydroxy-3H-2,1-benzoxaborol-5-yl)methyleneamino]-N-methyl-1,1-dioxo-1,2-benzothiazol-3-amine] | 78 | 3410 | – |
| COCCN(/N=C/c1ccc(B(O)O)c(OC)c1)C1=NS(=O)(=O)c2ccccc21 [Ex 5, [4-[(E)-[(1,1-dioxo-1,2-benzothiazol-3-yl)-(2-methoxyethyl)-hydrazono]methyl]-2-methoxy-phenyl]boronic acid] | 67 | 7100 | – |
| COc1cc(OC)c2c(c1)C(N(CC(C)C)/N=C/c1ccc(B(O)O)c(OC)c1)=NS2(=O)=O [Ex 3, [4-[(E)-[(5,7-dimethoxy-1,1-dioxo-1,2-benzothiazol-3-yl)-isobutyl-hydrazono]methyl]-2-methoxy-phenyl]boronic acid] | 89 | 2610 | – |
| COc1cc(/C=N/N(CC(C)C)c2nc(C)nc3ccsc23)ccc1B(O)O [Ex68, [4-[(E)-[isobutyl-(2-methylthieno[3,2-d]pyrimidin-4-yl)hydrazono]methyl]-2-methoxy-phenyl]boronic acid] | 84 | 2630 | – |
| COc1cccc2c(N3N=C(c4ccc5c(c4)COB5O)CCC3C)ncnc12 (centres unmarked) [Ex 56, 4-[6-(1-hydroxy-3H-2,1-benzoxaborol-5-yl)-3-methyl-4,5-dihydro-3H-pyridazin-2-yl]-8-methoxy-quinazoline] | 84 | 1000 | – |
| COc1ccc2c(c1)S(=O)(=O)N=C2N(CC(C)C)/N=C/c1ccc2c(c1)COB2O [Ex 30, N-[(E)-(1-hydroxy-3H-2,1-benzoxaborol-5-yl)methyleneamino]-N-isobutyl-6-methoxy-1,1-dioxo-1,2-benzothiazol-3-amine] | 86 | 3840 | – |
| CC(C)CN(/N=C/c1ccc2c(c1)COB2O)C1=NS(=O)(=O)c2ccccc21 [Ex 23, N-[(E)-(1-hydroxy-3H-2,1-benzoxaborol-5-yl)methyleneamino]-N-isobutyl-1,1-dioxo-1,2-benzothiazol-3-amine] | 88 | 3110 | – |
| CC1CCC(c2ccc3c(c2)COB3O)=NN1c1ncnc2c3c(sc12)CCCC3 (centres unmarked) [Ex122, 4-[6-(1-hydroxy-3H-2,1-benzoxaborol-5-yl)-3-methyl-4,5-dihydro-3H-pyridazin-2-yl]-6,7,8,9-tetrahydrobenzothiopheno[3,2-d]pyrimidine] | 94 | 820 | – |
| COCc1csc2c(N(C)/N=C/c3ccc4c(c3)COB4O)ncnc12 [Ex126, N-[(E)-(1-hydroxy-3H-2,1-benzoxaborol-5-yl)methyleneamino]-7-(methoxymethyl)-N-methyl-thieno[3,2-d]pyrimidin-4-amine] | 83 | 700 | – |
| COCCOc1cc(/C=N/N(CC(C)C)C2=NS(=O)(=O)c3ccccc32)ccc1B(O)O [Ex 11, [4-[(E)-[(1,1-dioxo-1,2-benzothiazol-3-yl)-isobutyl-hydrazono]methyl]-2-(2-methoxyethoxy)phenyl]boronic acid] | 85 | – | – |
| CC1CCC(c2ccc3c(c2)COB3O)=NN1C1=NS(=O)(=O)c2ccccc21 (centres unmarked) [Ex 53, 3-[6-(1-hydroxy-3H-2,1-benzoxaborol-5-yl)-3-methyl-4,5-dihydro-3H-pyridazin-2-yl]-1,2-benzothiazole 1,1-dioxide] | 87 | 3040 | – |
| CCCNC(=O)c1csc2c(N(CC)/N=C/c3ccc4c(c3)COB4O)ncnc12 [Ex112, 4-[ethyl-[(E)-(1-hydroxy-3H-2,1-benzoxaborol-5-yl)methyleneamino]-amino]-N-propyl-thieno[3,2-d]pyrimidine-7-carboxamide] | 79 | 1870 | – |
| COCCCN(/N=C/c1ccc2c(c1)COB2O)C1=NS(=O)(=O)c2ccccc21 [Ex 25, N-[(E)-(1-hydroxy-3H-2,1-benzoxaborol-5-yl)methyleneamino]-N-(3-methoxypropyl)-1,1-dioxo-1,2-benzothiazol-3-amine] | 78 | 2780 | – |
| CN(/N=C/c1ccc2c(c1)COB2O)c1ncnc2c1[nH]c(=O)n2C1CCC1 [Ex107, 9-cyclobutyl-6-[[(E)-(1-hydroxy-3H-2,1-benzoxaborol-5-yl)methyleneamino]-methyl-amino]-7H-purin-8-one] | 87 | 1650 | – |
| CCN(/N=C/c1ccc2c(c1)COB2O)c1ncnc2c(C(=O)NCCCCOC)csc12 [Ex116, 4-[ethyl-[(E)-(1-hydroxy-3H-2,1-benzoxaborol-5-yl)methyleneamino]-amino]-N-(4-methoxybutyl)thieno[3,2-d]pyrimidine-7-carboxamide] | 86 | 1940 | – |
| CCN(/N=C/c1ccc2c(c1)COB2O)c1ncnc2c(C(=O)NC3COC3)csc12 [Ex115, 4-[ethyl-[(E)-(1-hydroxy-3H-2,1-benzoxaborol-5-yl)methyleneamino]amino]-N-(oxetan-3-yl)thieno[3,2-d]pyrimidine-7-carboxamide] | 79 | 1740 | – |
| CC1OB(O)c2ccc(/C=N/N(C)C3=NS(=O)(=O)c4ccccc43)cc21 (centres unmarked) [Ex 50, N-[(E)-(1-hydroxy-3-methyl-3H-2,1-benzoxaborol-5-yl)methyleneamino]-N-methyl-1,1-dioxo-1,2-benzothiazol-3-amine] | 81 | 5130 | – |
| COc1cc(OC)c2c(c1)C(N(CC(C)C)/N=C/c1ccc(B(O)O)c(Cl)c1)=NS2(=O)=O [Ex 15, [2-chloro-4-[(E)-[(5,7-dimethoxy-1,1-dioxo-1,2-benzothiazol-3-yl)-isobutyl-hydrazono]methyl]phenyl]boronic acid] | 95 | – | – |
| COc1cc(C2=NN(C3=NS(=O)(=O)c4ccccc43)C(C)CC2)ccc1B(O)O (centres unmarked) [Ex 52, [4-[2-(1,1-dioxo-1,2-benzothiazol-3-yl)-3-methyl-4,5-dihydro-3H-pyridazin-6-yl]-2-methoxy-phenyl]boronic acid] | 70 | 1660 | – |
| CN(/N=C/c1ccc2c(c1)COB2O)C1=NS(=O)(=O)C2=C1CCCC2 [Ex 51, N-[(E)-(1-hydroxy-3H-2,1-benzoxaborol-5-yl)methyleneamino]-N-methyl-1,1-dioxo-4,5,6,7-tetrahydro-1,2-benzothiazol-3-amine] | 75 | 8480 | – |
